Assay [1] deals with 3T3-L1. As to the kind of experiment: Anti-adipogenic activity against mouse 3T3-L1 cells at lipogenesis stage assessed as decrease in triglyceride level at 1 uM and measured on 3 to 6 days by Oil Red O staining based spectroscopic analysis. Type of assay: functional, cell-based. The settings on record: time 3-6 day.
In assay [2] the test system is 3T3-L1. As to the kind of experiment: Anti-adipogenic activity against mouse 3T3-L1 cells assessed as downregulation of DGAT2 mRNA expression level at 0.1 to 1 uM incubated for 6 days by RT-qPCR analysis. The settings on record: dose 0.1-1 µM, time 6.0 day. In kind it is functional, cell-based. (In general: In qPCR the cycle at which signal appears reflects the starting amount.)

Assay [3] concerns 3T3-L1. As to the kind of experiment: Anti-adipogenic activity against mouse 3T3-L1 cells assessed as downregulation of C/EBPalpha protein expression level at 0.1 to 1 uM incubated for 24 hrs by Western blot analysis. In kind it is functional, cell-based. Particulars: dose 0.1-1 µM. On the technique in general: In western blotting, separated proteins are transferred to a membrane and probed.

Assay [4] concerns 3T3-L1. As to the kind of experiment: Anti-adipogenic activity against mouse 3T3-L1 cells assessed as downregulation of DGAT2 protein expression level at 0.1 to 1 uM incubated for 6 days by Western blot analysis. In kind it is functional, cell-based. The settings on record: dose 0.1-1 µM, time 6.0 day.
For assay [5], the system named is Mus musculus. As to the kind of experiment: Anti-obesity activity in high fat diet-induced obese C57BL/6J mouse model assessed as reduction in blood glucose level at 40 mg/kg, ip administered every two days for 5 weeks pretreated with compound and followed by insulin stimulation and measured upto 120 mins by insulin tolerance test. In kind it is functional, organism-based.

The test system of assay [6] is Mus musculus. As to the kind of experiment: Anti-obesity activity in high fat diet-induced obese C57BL/6J mouse model assessed as reduction in plasma insulin level at 40 mg/kg, ip administered every two days for 46 days. In kind it is functional, organism-based. Particulars: time 46.0 day.
Assay [7] has as its system Mus musculus. As to the kind of experiment: Anti-obesity activity in high fat diet-induced obese C57BL/6J mouse model assessed as reduction in free fatty acid level at 40 mg/kg, ip administered every two days for 46 days. In kind it is functional, organism-based. Particulars: time 46.0 day.
The target of assay [8] is Serine/threonine-protein kinase mTOR (Mus musculus) (UniProt Q9JLN9). As to the kind of experiment: Inhibition of mTOR signalling in mouse 3T3-L1 cells assessed as upregulation of ATG5 expression level at 0.1 to 10 uM incubated for 24 hrs by Western blot analysis. Particulars: dose 0.1-10 µM. Type of assay: cell-based.
Assay [9] concerns Mus musculus. As to the kind of experiment: In vivo inhibition of mTOR signalling in high fat diet-induced obese C57BL/6J mouse model assessed as decrease in mTOR phosphorylation at S2481 in liver at 40 mg/kg, ip administered every two days for 46 days by Western blot analysis. Type of assay: functional, organism-based. The settings on record: time 46.0 day.
The test system of assay [10] is 3T3-L1. As to the kind of experiment: Anti-adipogenic activity in SiRNA mediated Raptor knockdown mouse 3T3-L1 cells assessed as C/EBPalpha expression level at 10 uM by Western blot analysis. Type of assay: functional, cell-based.
In assay [11] the test system is 3T3-L1. As to the kind of experiment: Anti-adipogenic activity in SiRNA mediated Raptor knockdown mouse 3T3-L1 cells assessed as PPARgamma expression level at 10 uM by Western blot analysis. Type of assay: functional, cell-based.
The test system of assay [12] is 3T3-L1. As to the kind of experiment: Anti-adipogenic activity in SiRNA mediated Raptor knockdown mouse 3T3-L1 cells assessed as ACC expression level at 10 uM by Western blot analysis. Type of assay: functional, cell-based.
Assay [13] addresses mTORC1 (Mus musculus) (UniProt Q9JLN9). As to the kind of experiment: Inhibition of mTORC1 formation in mouse 3T3-L1 cells assessed as mTOR expression level at 10 uM incubated for 24 hrs by reciprocal co-immunoprecipitation assay. Type of assay: cell-based.
Assay [14] shares this target. As to the kind of experiment: Inhibition of mTORC1 formation in mouse 3T3-L1 cells assessed as increase in 4E-BP1 expression level at 10 uM incubated for 24 hrs by Western blot analysis. Type of assay: cell-based.
Assay [15] shares this target. As to the kind of experiment: Inhibition of mTORC1 formation in mouse 3T3-L1 cells assessed as increase in phosphorylated-4E-BP1 expression level at 10 uM incubated for 24 hrs by Western blot analysis. Type of assay: cell-based.
Assay [16] has as its system 3T3-L1. As to the kind of experiment: Anti-adipogenic activity in siRNA-mediated LC3B knockdown mouse 3T3-L1 cells assessed as decrease in triglyceride level at 10 uM by Oil Red O staining based spectroscopic analysis. Type of assay: functional, cell-based.

Each structure is given as a SMILES string. Active and inactive are the calls of the source. The rule behind the calls is not given here.

Take `C=C(C)[C@@]12OC3(c4ccccc4)O[C@@H]1[C@@H]1[C@H](O)[C@](Cl)(COC(=O)c4ccccc4)[C@@H](O)[C@]4(O)C(=O)C(C)=C[C@H]4[C@@]1(O3)[C@H](C)[C@H]2OC(C)=O`: the result in the assay on 3T3-L1 [1] was inactive. In addition, the outcome in the assay with 3T3-L1 [2], in the assay with 3T3-L1 [3], in the assay on 3T3-L1 [4], with Mus musculus [5], in the assay with Mus musculus [6] and with Mus musculus [7] was Active. The outcome in the assay on 3T3-L1 [10], with 3T3-L1 [11], with 3T3-L1 [12] and with 3T3-L1 [16] was Active. The inhibition result (in assay [8]; in the assay with Mus musculus [9]; on mTORC1 (Mus musculus) [13]; on mTORC1 (Mus musculus) [14]; at mTORC1 (Mus musculus) [15]) was “Active” each time.

These data come from ChEMBL document CHEMBL5380850, “Discovery of the First Raptor (Regulatory-Associated Protein of mTOR) Inhibitor as a New Type of Antiadipogenic Agent” (J Med Chem, 2023).
